Experimental data taken from ChEMBL document CHEMBL1128489, “Novel hexakis(areneisonitrile)technetium(I) complexes as radioligands targeted to the multidrug resistance P-glycoprotein” (J Med Chem, 1995).

Assays:
Settings in all cases: in vivo, 0.5 h
[1] = tested on: Rattus norvegicus; assay: Biodistribution values represent the mean % id/organ for paired rats 30 min post intravenous injection complex in Spleen; type: ADME, organism-based
[2] = tested on: Rattus norvegicus; assay: Biodistribution values represent the mean % id/organ for paired rats 30 min post intravenous injection complex in Adrenal; type: ADME, organism-based
[3] = tested on: Rattus norvegicus; assay: Biodistribution values represent the mean % id/organ for paired rats 30 min post intravenous injection complex in Blood; type: ADME, organism-based
[4] = tested on: Rattus norvegicus; assay: Biodistribution values represent the mean % id/organ for paired rats 30 min post intravenous injection complex in Bone; type: ADME, organism-based, Bone element
[5] = tested on: Rattus norvegicus; assay: Biodistribution values represent the mean % id/organ for paired rats 30 min post intravenous injection complex in Brain; type: ADME, organism-based
[6] = tested on: Rattus norvegicus; assay: Biodistribution values represent the mean % id/organ for paired rats 30 min post intravenous injection complex in Fat; type: ADME, organism-based
[7] = tested on: Rattus norvegicus; assay: Biodistribution values represent the mean % id/organ for paired rats 30 min post intravenous injection complex in GI; type: ADME, organism-based
[8] = tested on: Rattus norvegicus; assay: Biodistribution values represent the mean % id/organ for paired rats 30 min post intravenous injection complex in Heart; type: ADME, organism-based
[9] = tested on: Rattus norvegicus; assay: Biodistribution values represent the mean % id/organ for paired rats 30 min post intravenous injection complex in Kidney; type: ADME, organism-based
[10] = tested on: Rattus norvegicus; assay: Biodistribution values represent the mean % id/organ for paired rats 30 min post intravenous injection complex in Skin; type: ADME, organism-based
[11] = tested on: Rattus norvegicus; assay: Biodistribution values represent the mean % id/organ for paired rats 30 min post intravenous injection complex in Liver; type: ADME, organism-based
[12] = tested on: Rattus norvegicus; assay: Biodistribution values represent the mean % id/organ for paired rats 30 min post intravenous injection complex in Lungs; type: ADME, organism-based, Lung
[13] = tested on: Rattus norvegicus; assay: Biodistribution values represent the mean % id/organ for paired rats 30 min post intravenous injection complex in Muscles; type: ADME, organism-based, Muscle tissue

Substance | ID/organ [1] [%] | ID/organ [2] [%] | ID/organ [3] [%] | ID/organ [4] [%] | ID/organ [5] [%] | ID/organ [6] [%] | ID/organ [7] [%] | ID/organ [8] [%] | ID/organ [9] [%] | ID/organ [10] [%] | ID/organ [11] [%] | ID/organ [12] [%] | ID/organ [13] [%]
Hexakis[3-(hydroxymethyl)benzeneisonitrile]technetium Complex | 1.85 | 0.05 | 3.39 | 3.6 | 0.01 | 0.2 | 13.8 | 0.12 | 2.98 | 0.62 | 62.2 | 0.63 | 2.99
Hexakis[2-(3,4,5-Trimethoxyphenyl)ethaneisonitrile]technetium Complex | 1.5 | 0.12 | 0.93 | 5.11 | 0.01 | 0.19 | 24.5 | 0.38 | 10 | 1.33 | 44.2 | 0.43 | 4.84
Hexakis[3-Nitrobenzeneisonitrile]technetium Complex | 0.28 | 0.01 | 9.44 | 5.74 | 0.03 | 0.51 | 42.9 | 0.17 | 5.21 | 5.3 | 13.8 | 0.37 | 7.61
Hexakis[4-Acetylbenzeneisonitrile]technetium Complex | 2.28 | 0.06 | 1.13 | 4.27 | 0.01 | 0.07 | 3.15 | 0.03 | 0.66 | 0.7 | 92.7 | 1.73 | 0.68
Hexakis[2-(4-Methoxyphenyl)ethaneisonitrile]technetium Complex | 2.94 | 0.03 | 0.79 | 3.44 | 0 | 0.26 | 1.86 | 0.15 | 0.19 | 0.41 | 81.1 | 3.93 | 1.99
Hexakis[3,4-Dimethoxy-alpha-tolueneisonitrile]technetium Complex | 0.34 | 0.07 | 3.27 | 4.72 | 0.02 | 0.21 | 33.5 | 0.1 | 2.25 | 1.35 | 44.2 | 1.22 | 2.48
Hexakis[2-Methoxy-5-nitrobenzeneisonitrile]technetium Complex | 1.25 | 0.04 | 14.1 | 9.58 | 0.04 | 0.55 | 19.4 | 0.35 | 2.74 | 2.88 | 32.5 | 0.51 | 6.82
Hexakis[4-Cyanobenzeneisonitrile]technetium Complex | 2.47 | 0.03 | 9.89 | 4.9 | 0.03 | 0.37 | 2.99 | 0.13 | 1.23 | 1.23 | 75.7 | 2.2 | 3.84
Hexakis[3,4-(Methylenedioxy)benzeneisonitrile]technetium Complex | 1.82 | 0.05 | 1.45 | 4.73 | 0.01 | 0.08 | 0.38 | 0.03 | 0.12 | 0.19 | 91.8 | 2.62 | 0.47
Hexakis[3,4,5-Trimethoxy-alpha-tolueneisonitrile]technetium Complex | 0.13 | 0.04 | 0.59 | 2.29 | 0.01 | 0.17 | 65.1 | 0.17 | 3.83 | 0.76 | 39.2 | 0.61 | 3.02
